The values that follow come from DBAASP.

Test systems include Bacillus anthracis; Bacillus cereus; Escherichia coli; Staphylococcus aureus; Escherichia coli UB1005; Streptococcus agalactiae; Enterobacter cloacae; Enterococcus faecalis; Leuconostoc lactis; Listeria innocua; Micrococcus luteus; Pasteurella multocida; Pseudomonas aeruginosa; Streptococcus uberis; Bacillus subtilis 168; Escherichia coli B; Bacillus cereus AS1.126; Escherichia coli AS1.349.

Holding throughout (experiment): ≥ marks a high value that may be exact or a test limit, other limits are often not marked, values filed in µg/mL are converted to µM
For assay [1], the system named is Enterococcus faecalis ATCC 29212.
Assay [2] relates to Escherichia coli ATCC 25922.
Assay [3] relates to Salmonella enterica subsp. enterica serovar Choleraesuis CVCC 503.
Assay [4] has as its system Salmonella enterica subsp. enterica serovar Pullorum C79-13.
In assay [5] the test system is Salmonella enterica subsp. enterica serovar Typhimurium ATCC 14028.
Assay [6] concerns Salmonella enterica subsp. enterica serovar Typhimurium C77-31.
Assay [7] deals with Staphylococcus aureus ATCC 29213.
The test system of assay [8] is Staphylococcus aureus ATCC 43300.
The subject of assay [9] is Staphylococcus epidermidis ATCC 12228.
Assay [10] has as its system Staphylococcus aureus ATCC 25923.
The subject of assay [11] is Staphylococcus epidermidis.
Assay [12] has as its system Enterococcus faecalis CGMCC 1.595.
For assay [13], the system named is Enterococcus faecium CGMCC 1.2334.
In assay [14] the test system is Lactococcus lactis AS1.1690.
For assay [15], the system named is Pseudomonas aeruginosa CGMCC 1.860.
Assay [16] has as its system Staphylococcus aureus AS1.72.

Values after ≈ are worked out from the molar mass of the structure shown.

For `CC[C@H](C)[C@H](NC(=O)[C@H](CC(C)C)NC(=O)[C@H](CCCCN)NC(=O)[C@H](CCSC)NC(=O)[C@@H](NC(=O)[C@H](C)NC(=O)[C@H](C)NC(=O)[C@H](CCCN=C(N)N)NC(=O)[C@H](CCCCN)NC(=O)[C@H](Cc1ccccc1)NC(=O)[C@H](Cc1ccccc1)NC(=O)[C@H](CC(C)C)NC(=O)[C@@H](NC(=O)[C@H](C)NC(=O)CNC(=O)[C@@H](NC(=O)[C@H](CO)NC(=O)[C@@H]1CCCN1C(=O)[C@@H](NC(=O)[C@@H](N)CO)C(C)C)C(C)C)C(C)C)C(C)C)C(=O)O` [SVPSVGAVLFFKRAAVMKLI], the MIC with Bacillus anthracis is at least 120 µM; against Bacillus cereus, at least 120 µM; in the assay with Escherichia coli it was above 120 µM; in the assay with Staphylococcus aureus, above 120 µM.

On to `CC(C)[C@H](N)C(=O)N[C@@H](CS)C(=O)N[C@@H](CCCN=C(N)N)C(=O)N[C@@H](CCCCN)C(=O)N1CCC[C@H]1C(=O)N[C@H](C(=O)N[C@H](C(=O)N[C@@H](CS)C(=O)N[C@@H](CCCN=C(N)N)C(=O)N[C@@H](CCCCN)C(=O)N1CCC[C@H]1C(=O)N[C@H](C(=O)N[C@H](C(=O)N[C@@H](CS)C(=O)N[C@@H](CCCN=C(N)N)C(=O)N[C@@H](CCCCN)C(=O)N1CCC[C@H]1C(=O)N[C@H](C(=O)N[C@H](C(=O)N[C@@H](CS)C(=O)N[C@@H](CCCN=C(N)N)C(=O)N[C@@H](CCCCN)C(=O)N1CCC[C@H]1C(=O)N[C@H](C(N)=O)C(C)C)C(C)C)C(C)C)C(C)C)C(C)C)C(C)C)C(C)C` [VCRKPVVCRKPVVCRKPVVCRKPV], for which the minimum inhibitory concentration (MIC) in assay [1] was above 64 µM; in assay [2] it was 8 µM (≈ 22 µg/mL); in the assay with Escherichia coli UB1005, 8 µM (≈ 22 µg/mL); in assay [3], at least 64 µM; in assay [4] it was at least 64 µM; in assay [5], 8 µM (≈ 22 µg/mL). Also, the minimal inhibitory concentration (MIC) in assay [6] was 8 µM (≈ 22 µg/mL); in [7], above 64 µM; in assay [8], above 64 µM; in the assay on Staphylococcus aureus, above 64 µM; in assay [9], above 64 µM; in the assay with Streptococcus agalactiae it was at least 64 µM.

On to `CC[C@H](C)[C@H](NC(=O)[C@@H](NC(=O)[C@@H]1CCCN1C(=O)[C@H](C)NC(=O)[C@@H](NC(=O)[C@H](Cc1cnc[nH]1)NC(=O)[C@@H]1CCCN1C(=O)[C@H](CC(C)C)NC(=O)[C@H](CC(C)C)NC(=O)[C@H](Cc1cnc[nH]1)NC(=O)[C@H](CCCCN)NC(=O)[C@H](C)NC(=O)[C@@H](NC(=O)[C@H](CO)NC(=O)CNC(=O)[C@H](CC(C)C)NC(=O)[C@@H](NC(=O)[C@H](CO)NC(=O)[C@H](Cc1ccccc1)NC(=O)[C@H](CC(C)C)NC(=O)CN)C(C)C)C(C)C)C(C)C)[C@@H](C)CC)C(=O)N[C@@H](C)C(=O)N[C@@H](CCC(=O)O)C(=O)N[C@@H](CCCCN)C(=O)N[C@@H](CC(C)C)C(N)=O` [GLFSVLGSVAKHLLPHVAPIIAEKL], for which the MIC with Bacillus cereus was at least 38.3 µM; in the assay on Enterobacter cloacae, at least 38.3 µM; in the assay on Enterococcus faecalis it was at least 38.3 µM; against Escherichia coli, above 38.3 µM; against Leuconostoc lactis, 1.15 µM (≈ 3 µg/mL); in the assay with Listeria innocua it was 9.58 µM (≈ 25 µg/mL). Besides, the minimal inhibitory concentration (MIC) in the assay on Micrococcus luteus was 4.6 µM (≈ 12 µg/mL); against Pasteurella multocida, 9.58 µM (≈ 25 µg/mL); against Pseudomonas aeruginosa it was above 38.3 µM; in [10] it was 19.2 µM (≈ 50 µg/mL); in [7], 4.6 µM (≈ 12 µg/mL); in assay [11], 4.6 µM (≈ 12 µg/mL). Also, in the assay on Streptococcus uberis, the MIC amounted to 9.58 µM (≈ 25 µg/mL).

As to `CC[C@H](C)[C@H](N)C(=O)N[C@@H](CS)C(=O)N[C@@H](CCCN=C(N)N)C(=O)N[C@@H](CCCCN)C(=O)N1CCC[C@H]1C(=O)N[C@H](C(=O)N[C@H](C(=O)N[C@@H](CS)C(=O)N[C@@H](CCCN=C(N)N)C(=O)N[C@@H](CCCCN)C(=O)N1CCC[C@H]1C(=O)N[C@H](C(=O)N[C@H](C(=O)N[C@@H](CS)C(=O)N[C@@H](CCCN=C(N)N)C(=O)N[C@@H](CCCCN)C(=O)N1CCC[C@H]1C(=O)N[C@H](C(N)=O)[C@@H](C)CC)[C@@H](C)CC)[C@@H](C)CC)[C@@H](C)CC)[C@@H](C)CC` [ICRKPIICRKPIICRKPI], the MIC in assay [1] is above 64 µM; in [2], 8 µM (≈ 17.2 µg/mL); in the assay on Escherichia coli UB1005, 4 µM (≈ 8.6 µg/mL); in [3], 16 µM (≈ 34.4 µg/mL); in assay [4] it was at least 64 µM; in assay [5] it was 8 µM (≈ 17.2 µg/mL). In addition, the MIC is 8 µM (≈ 17.2 µg/mL) in assay [6]; above 64 µM in assay [7]; above 64 µM in assay [8]; above 64 µM against Staphylococcus aureus; above 64 µM in [9]; at least 64 µM in the assay on Streptococcus agalactiae.

As for `CC[C@H](C)[C@H](NC(=O)[C@H](CCCCN)NC(=O)[C@H](CCCCN)NC(=O)[C@H](CC(C)C)NC(=O)[C@@H](NC(=O)[C@H](CCCCN)NC(=O)[C@H](CCCCN)NC(=O)[C@H](Cc1c[nH]c2ccccc12)NC(=O)[C@H](CC(N)=O)NC(=O)[C@@H](N)C(C)C)C(C)C)C(=O)N[C@H](C(=O)N[C@@H](CCCCN)C(=O)N[C@H](C(=O)N[C@@H](C)C(=O)N[C@@H](CCCCN)C(N)=O)C(C)C)[C@@H](C)CC` [VNWKKVLKKIIKVAK], the MIC amounted to 0.7 µM (≈ 1.26 µg/mL) against Bacillus subtilis 168, 0.7 µM (≈ 1.26 µg/mL) in the assay with Escherichia coli B, 19 µM (≈ 34.1 µg/mL) in the assay with Pseudomonas aeruginosa and 15.6 µM (≈ 28 µg/mL) against Staphylococcus aureus.

For `CC[C@H](C)[C@H](N)C(=O)N[C@H](C(=O)N[C@H](C(=O)N[C@@H](CS)C(=O)N[C@@H](CCCN=C(N)N)C(=O)N[C@@H](CCCCN)C(=O)N1CCC[C@H]1C(=O)N[C@H](C(=O)N[C@H](C(=O)N[C@@H](CS)C(=O)N[C@@H](CCCN=C(N)N)C(=O)N[C@@H](CCCCN)C(=O)N1CCC[C@H]1C(=O)N[C@H](C(=O)N[C@H](C(=O)N[C@H](C(N)=O)[C@@H](C)CC)[C@@H](C)CC)[C@@H](C)CC)[C@@H](C)CC)[C@@H](C)CC)[C@@H](C)CC)[C@@H](C)CC` [IIICRKPIICRKPIII], the MIC is above 64 µM in assay [1]; 8 µM (≈ 15.1 µg/mL) in [2]; 8 µM (≈ 15.1 µg/mL) in the assay on Escherichia coli UB1005; at least 32 µM in [3]; at least 32 µM in [4]; 32 µM (≈ 60.5 µg/mL) in assay [5]. The MIC is at least 32 µM in [6]; above 64 µM in assay [7]; above 64 µM in assay [8]; above 64 µM against Staphylococcus aureus; above 64 µM in assay [9]; at least 64 µM against Streptococcus agalactiae.

In the case of `CC(C)[C@H](N)C(=O)N[C@@H](Cc1c[nH]c2ccccc12)C(=O)N[C@@H](CCCN=C(N)N)C(=O)N[C@@H](CCCN=C(N)N)C(=O)N[C@@H](Cc1c[nH]c2ccccc12)C(=O)N[C@@H](CCCN=C(N)N)C(=O)N[C@@H](CCCN=C(N)N)C(=O)N[C@@H](Cc1ccccc1)C(=O)N[C@@H](Cc1c[nH]c2ccccc12)C(=O)O` [VWRRWRRFW], the MIC in the assay with Bacillus cereus AS1.126 was determined as 6.25 µM (≈ 9.05 µg/mL); in assay [12], 12.5 µM (≈ 18.1 µg/mL); in [13], 12.5 µM (≈ 18.1 µg/mL); against Escherichia coli AS1.349 it was 12.5 µM (≈ 18.1 µg/mL); in assay [14], 12.5 µM (≈ 18.1 µg/mL); in assay [15], 6.25 µM (≈ 9.05 µg/mL). In assay [16], the MIC came out at 12.5 µM (≈ 18.1 µg/mL).
